Measurements as given in US11497761B2, “Compositions for the treatment of metastatic cancer” (priority 2019, dated 2022).

Tests used:
[1] = test system: Ehrlich ascites tumor cells; conditions: in vitro, Kato et al. 1971; cited from earlier work
[2] = test system: iCTCs from pancreatic cancer patients; experiment: iCTC drug response (CDR) testing ex vivo, Project 1 Study-Pancreatic Cancer; type: cell-based, human; conditions: for number of live iCTCs remaining after treatment: 72 hours
Protocol: Materials for Project 1 Study-Pancreatic Cancer • Blood collection tubes: BD Vacutainer® 10 mL sodium heparin tube (BD catalog #367874)). • Vita-Assay™ AN6W plate. • Blood: pancreatic cancer, up to 40-mL blood collected from patients and provided by Conversant Bio. • Stock solution and dilutions • Monolaurin 4.78 mM with 0.75% PS-80 (Stock Solution C), 13.1 mg monolaurin in 0.25 mL PS-80 and 0.75 mL water and 0.1 mL of this solution was diluted with 0.9 mL of RPMI. Stocks are stable for 2 weeks at 4 degrees C. Monolaurin used is an equal mixture of 1-, 2-, and 3-isomers of monolaurin. • Monolaurin dilution: add 209.2 uL, 627.6 uL, and 1.2552 mL of monolaurin in 0.75% PS-80 (Stock solution C), and dilute to 10 mL of media to achieve final concentrations of 100 uM, 200 uM, 300 uM as indicated.
With respect to FIG. 1, a depiction of a generalized experimental scheme for testing efficacy of a composition in accordance with an exemplary embodiment of the present invention against iCTC from the blood of pancreatic cancer patients is shown. Invasive circulating tumor cells (iCTCs) were obtained from venous blood of the individual with advanced pancreatic cancer, cultured and exposed to a specific drug or battery of drugs at 1×, 2×, and 3× concentrations in vitro for 3 days. Drug responsiveness was measured by automatic flow cytometry using the reduction of live iCTCs in the treated samples from the number of live iCTCs in the untreated controls. The greater the reduction of iCTCs of a given drug at a given dose indicates greater responsiveness to that dose of the drug. Four AN6W plates were used for each sample. Control and drug at each dose in triplicate were incubated for 72 hours. The iCTCs were measured by flow cytometry and viewed by microscopy as described. The complete culture medium contains 10% fetal bovine serum.
The complete experimental procedure for Project 1 Study-Pancreatic Cancer, with reference to FIG. 1, is as follows:
1. Blood collection: up to 40-mL of blood was collected in several sodium heparin tubes from each patient.
2. Plasma collection: The patient sample tubes were pooled into a clean 50-mL conical tube and spun at 1,500 rpm for 8 mins at room temperature to separate plasma from blood cells. 3-4 mL of plasma were then collected into a clean 4.5-mL cell-frozen vial (up to 4 vials per patient), a labeled attached and the plasma stored at −80° C. freezer for use. 3. Calculated 50-mL tubes required for lysis of red blood cells: original blood volume. i.e., 36-mL,/2-mL=18. 4. Aliquotted 1/18 the remaining cell fraction into 18 new 50-mL tubes. 5. Red cell lysis: Added 48-mL of 1× red cell lysis buffer into each 50-mL tube to lyse red cells. Tubes placed on a roller mixer at 20-25° C. for 5 min. Cells spun down using low speed centrifugation (1,000 rpm). 6. iCTCs were captured using AN6W plate with or without drug treatment. 7. Drug treatment: Add 1-mL of CTC Capture Medium (standard culture medium containing 10% serum) with or without drugs (3× strength) to each 2-mL of the cell suspension in one well of the AN6W plate. 8. Cell culture: Culture cells in a 5% CO2 incubator at 37° C. for overnight, 72 hours, and 7 days. 9. CAM-enzyme elution of CAM-captured cells: Wells will be washed twice using 2-mL of 1×PBS. Add 0.8-mL of the activated CAM enzyme working solution into the well, and place at 37° C. for 15 min. Transfer cell suspension into a 15-mL conical centrifuge tube. Wash well by pipetting 2-mL of 1×PBS into the well and collect/transfer wash solution into the pool cell suspension. CAM-captured tumor cells will be collected using low speed centrifugation (1,000 rpm) of the conical tube. 10. Preparation of the cells for flow cytometry: Fix the cells by using 1×BD cell fixing buffer and keep at room temperature for 5 min. Add 3-mL of 1×PBS (containing 0.2% BSA buffer), spin down cells and remove the supernatant. 11. […]

CCCCCCCCCCCC(=O)OCC(O)CO (centres unmarked) [Monolaurin, glycerol monolaurate]
20: number of live iCTCs remaining after treatment ([2]; patient RP12 (Folfirinox), iCTC control 30, 100 uM monolaurin) | number of live iCTCs remaining after treatment ([2]; patient RP′14 (Folfirinox), iCTC control 40, 100 uM monolaurin)
50: number of live iCTCs remaining after treatment ([2]; patient RP01 (Folfirinox), iCTC control 550, 100 uM monolaurin)
0: number of live iCTCs remaining after treatment ([2]; patient RP01 (Folfirinox), iCTC control 550, 200 uM monolaurin) | number of live iCTCs remaining after treatment ([2]; patient RP01 (Folfirinox), iCTC control 550, 300 uM monolaurin) | number of live iCTCs remaining after treatment ([2]; patient RP03 (Folfirinox), iCTC control 23, 200 uM monolaurin) | number of live iCTCs remaining after treatment ([2]; patient RP03 (Folfirinox), iCTC control 23, 300 uM monolaurin) | number of live iCTCs remaining after treatment ([2]; patient RP04 (Folfirinox), iCTC control 30, 100 uM monolaurin) | number of live iCTCs remaining after treatment ([2]; patient RP04 (Folfirinox), iCTC control 30, 200 uM monolaurin) | number of live iCTCs remaining after treatment ([2]; patient RP04 (Folfirinox), iCTC control 30, 300 uM monolaurin) | number of live iCTCs remaining after treatment ([2]; patient RP10 (Folfirinox), iCTC control 100, 200 uM monolaurin) | number of live iCTCs remaining after treatment ([2]; patient RP10 (Folfirinox), iCTC control 100, 300 uM monolaurin) | number of live iCTCs remaining after treatment ([2]; patient RP12 (Folfirinox), iCTC control 30, 200 uM monolaurin) | number of live iCTCs remaining after treatment ([2]; patient RP12 (Folfirinox), iCTC control 30, 300 uM monolaurin) | number of live iCTCs remaining after treatment ([2]; patient RP16 (Folfirinox), iCTC control 30, 100 uM monolaurin) | number of live iCTCs remaining after treatment ([2]; patient RP16 (Folfirinox), iCTC control 30, 200 uM monolaurin) | number of live iCTCs remaining after treatment ([2]; patient RP16 (Folfirinox), iCTC control 30, 300 uM monolaurin) | number of live iCTCs remaining after treatment ([2]; patient RP17 (Gemzar), iCTC control 50, 100 uM monolaurin) | number of live iCTCs remaining after treatment ([2]; patient RP17 (Gemzar), iCTC control 50, 200 uM monolaurin) | number of live iCTCs remaining after treatment ([2]; patient RP17 (Gemzar), iCTC control 50, 300 uM monolaurin) | number of live iCTCs remaining after treatment ([2]; patient RP18 (Gemzar/Abraxane), iCTC control 175, 100 uM monolaurin) | number of live iCTCs remaining after treatment ([2]; patient RP18 (Gemzar/Abraxane), iCTC control 175, 200 uM monolaurin) | number of live iCTCs remaining after treatment ([2]; patient RP18 (Gemzar/Abraxane), iCTC control 175, 300 uM monolaurin) | number of live iCTCs remaining after treatment ([2]; patient RP22 (Keytruda), iCTC control 45, 100 uM monolaurin) | number of live iCTCs remaining after treatment ([2]; patient RP22 (Keytruda), iCTC control 45, 200 uM monolaurin) | number of live iCTCs remaining after treatment ([2]; patient RP22 (Keytruda), iCTC control 45, 300 uM monolaurin)
high kill rates: kill rates of iCTCs (summary) ([2]; iCTCs from pancreatic cancer patients)
only weak activity: anticancer activity [1]
10: number of live iCTCs remaining after treatment ([2]; patient RP03 (Folfirinox), iCTC control 23, 100 uM monolaurin) | number of live iCTCs remaining after treatment ([2]; patient RP10 (Folfirinox), iCTC control 100, 100 uM monolaurin) | number of live iCTCs remaining after treatment ([2]; patient RP11 (Folfirinox), iCTC control 40, 100 uM monolaurin) | number of live iCTCs remaining after treatment ([2]; patient RP11 (Folfirinox), iCTC control 40, 200 uM monolaurin) | number of live iCTCs remaining after treatment ([2]; patient RP11 (Folfirinox), iCTC control 40, 300 uM monolaurin) | number of live iCTCs remaining after treatment ([2]; patient RP′14 (Folfirinox), iCTC control 40, 300 uM monolaurin)
15: number of live iCTCs remaining after treatment ([2]; patient RP′14 (Folfirinox), iCTC control 40, 200 uM monolaurin)
